Laboratory results as given in ChEMBL document CHEMBL1201862, “PubChem BioAssay data set” (2004).
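Cells were grown in 96-well plates and exposed to each compound for 48 hours at five concentrations; endpoints were interpolated linearly between bracketing concentrations, or set to the highest concentration if not reached. GI50 marks 50% less growth.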 Activity calls are given as the source filed them. Cut-off read from the data, not from the text of the source: active = GI50 up to about 1.1 µM and inactive = higher.

Columns and labels:
Assay in all cases: inhibition of tumour cell growth, NCI panel, 48 h
[1] = test system: 786-0
[2] = test system: A498
[3] = test system: A549
[4] = test system: ACHN
[5] = test system: BT-549
[6] = test system: CAKI-1
[7] = test system: CCRF-CEM
[8] = test system: COLO 205
[9] = test system: DLD-1
[10] = test system: DMS-114
[11] = test system: DMS-273
[12] = test system: DU-145
[13] = test system: EKVX
[14] = test system: HCC 2998
[15] = test system: HCT-116
[16] = test system: HCT-15
[17] = test system: HOP-18
[18] = test system: HOP-62
[19] = test system: HOP-92
[20] = test system: HT-29
[21] = test system: Hs-578T
[22] = test system: IGROV-1
[23] = test system: K562
[24] = test system: KM-20L2
[25] = test system: KM12
[26] = test system: LOX IMVI
[27] = test system: LXFL 529
[28] = test system: M14
[29] = test system: M19-MEL
[30] = test system: MCF7
[31] = test system: MDA-MB-231
[32] = test system: MDA-MB-435
[33] = test system: MDA-N
[34] = test system: MOLT-4
[35] = test system: Malme-3M
[36] = test system: NCI-H226
[37] = test system: NCI-H23
[38] = test system: NCI-H460
[39] = test system: NCI-H522
[40] = test system: NCI/ADR-RES
[41] = test system: OVCAR-3
[42] = test system: OVCAR-4
[43] = test system: OVCAR-5
[44] = test system: OVCAR-8
[45] = test system: PC-3
[46] = test system: RPMI-8226
[47] = test system: RXF 393
[48] = test system: RXF 631
[49] = test system: SF-268
[50] = test system: SF-295
[51] = test system: SF-539
[52] = test system: SK-MEL-28
[53] = test system: SK-MEL-2
[54] = test system: SK-MEL-5
[55] = test system: SK-OV-3
[56] = test system: SN12C
[57] = test system: SNB-19
[58] = test system: SNB-75
[59] = test system: SNB-78
[60] = test system: SR
[61] = test system: SW-620
[62] = test system: T47D
[63] = test system: TK-10
[64] = test system: U-251
[65] = test system: UACC-257
[66] = test system: UACC-62
[67] = test system: UO-31
[68] = test system: XF498

For `O=C(CC1(O)C(=O)Nc2c(Cl)cc(Cl)cc21)c1cccc([N+](=O)[O-])c1` (stereo not drawn), the GI50 [1] was 22.2 µM (inactive), the GI50 [2] was 27.9 µM (inactive) and the GI50 [3] was 39.5 µM (inactive). For the same molecule, the GI50 [4] was 23 µM (inactive), the GI50 [5] was 61 µM (inactive) and the GI50 [6] was 32.6 µM (inactive). The GI50 [7] was 17.4 µM (inactive), the GI50 [8] was 33.3 µM (inactive) and the GI50 [9] was 43.2 µM (inactive). The GI50 [10] was 21.5 µM (inactive), the GI50 [11] was 39.4 µM (inactive) and the GI50 [12] was > 100 µM (inactive). For the same molecule, the GI50 [13] was 52.5 µM (inactive), the GI50 [14] was > 45.2 µM (inactive) and the GI50 [15] was 19.8 µM (inactive). The GI50 [16] was 48.5 µM, the GI50 [17] was 32.3 µM (inactive) and the GI50 [18] was 50.6 µM (inactive). For the same molecule, the GI50 [19] was 23.2 µM (inactive), the GI50 [20] was 28.9 µM (inactive) and the GI50 [21] was 30.6 µM (inactive). The GI50 [22] was 18.2 µM (inactive), the GI50 [23] was 19.8 µM (inactive) and the GI50 [24] was 52.1 µM (inactive). For the same molecule, the GI50 [25] was 24.5 µM (inactive), the GI50 [26] was 17 µM (inactive) and the GI50 [27] was 15.1 µM (inactive). The GI50 [28] was 22.8 µM (inactive), the GI50 [29] was 5.14 µM (inactive) and the GI50 [30] was 11.9 µM (inactive). The GI50 [31] was 29.9 µM (inactive), the GI50 [32] was 5.12 µM (inactive) and the GI50 [33] was 18.9 µM (inactive). For the same molecule, the GI50 [34] was 19.8 µM (inactive), the GI50 [35] was 19.4 µM (inactive) and the GI50 [36] was 31.6 µM (inactive). For the same molecule, the GI50 [37] was 19.4 µM (inactive), the GI50 [38] was 39.9 µM (inactive) and the GI50 [39] was 67 µM (inactive). The GI50 [40] was 29 µM (inactive), the GI50 [41] was 25 µM (inactive) and the GI50 [42] was 14.4 µM (inactive). For the same molecule, the GI50 [43] was 55.7 µM (inactive), the GI50 [44] was 29.9 µM (inactive) and the GI50 [45] was 32.1 µM (inactive). The GI50 [46] was 28.2 µM (inactive), the GI50 [47] was 28.6 µM (inactive) and the GI50 [48] was 24.8 µM (inactive). The GI50 [49] was 44.4 µM (inactive), the GI50 [50] was 31 µM (inactive) and the GI50 [51] was 27.9 µM (inactive). For the same molecule, the GI50 [52] was 32.9 µM (inactive), the GI50 [53] was 34.3 µM (inactive) and the GI50 [54] was 17.2 µM (inactive). For the same molecule, the GI50 [55] was 38.6 µM (inactive), the GI50 [56] was 24.7 µM (inactive) and the GI50 [57] was > 73.1 µM (inactive). For the same molecule, the GI50 [58] was 15.2 µM (inactive), the GI50 [59] was 41.5 µM (inactive) and the GI50 [60] was 51.9 µM (inactive). For the same molecule, the GI50 [61] was 20.1 µM (inactive), the GI50 [62] was 63.5 µM (inactive) and the GI50 [63] was > 55.8 µM (inactive). The GI50 [64] was 27.7 µM (inactive), the GI50 [65] was 16 µM (inactive) and the GI50 [66] was 18.8 µM (inactive). The GI50 [67] was 38.6 µM (inactive) and the GI50 [68] was 20.7 µM (inactive).
